These results are taken from patent US8901118B2, “Compounds and methods for kinase modulation, and indications therefor” (Plexxikon Inc., priority 2010, dated 2014).

Experiment [1] deals with T1, BCR-NTRK2 BaF3 cells (Homo sapiens, UniProt Q16620).
T1 construct: fused on or other part: P11274 (Breakpoint cluster region protein)
Briefly: BaF3 BCR-NTRK2 cell proliferation assay (ATPlite). The class given is cell-based. The following applies: read-out: Inhibition of Cell Proliferation IC50, BCR/BaF3 TrkB. An outline of the steps: (§1)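 IL-3-free growth, 3-day compound exposure (8-point 1:3 titration, top 10 μM, DMSO control), 37 °C 5% CO2. BaF3 10,000 or MV-4-11 25,000 cells/well, plated overnight beforehand. Read-out ATPlite luminescence vs concentration → IC50.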
On the technique in general: Cellular ATP, detected with luciferase, serves as a proxy for viable cell number.

For experiment [2], the target named is T2, BCR-NTRK1 BaF3 cells (Homo sapiens, UniProt P04629).
T2 construct: fused on or other part: P11274 (Breakpoint cluster region protein)
T2 sequence (P04629 510-781): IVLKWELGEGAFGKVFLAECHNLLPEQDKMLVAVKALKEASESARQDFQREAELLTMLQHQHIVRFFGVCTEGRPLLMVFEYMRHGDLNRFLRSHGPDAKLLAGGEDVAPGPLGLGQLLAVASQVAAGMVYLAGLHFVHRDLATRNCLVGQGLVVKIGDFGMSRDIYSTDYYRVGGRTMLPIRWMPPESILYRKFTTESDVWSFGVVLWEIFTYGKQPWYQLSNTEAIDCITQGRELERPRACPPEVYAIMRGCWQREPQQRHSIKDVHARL
As to the kind of experiment: BaF3 BCR-NTRK1 cell proliferation assay (ATPlite). The class given is cell-based. Particulars: read-out: Inhibition of Cell Proliferation IC50, BCR/BaF3 TrkA. The essentials: as §1

Experiment [3] concerns the target T3, BCR-NTRK3 BaF3 cells (Homo sapiens, UniProt Q16288).
T3 construct: fused on or other part: P11274 (Breakpoint cluster region protein)
As to the kind of experiment: BaF3 BCR-NTRK3 cell proliferation assay (ATPlite). It is filed as cell-based. Particulars: read-out: Inhibition of Cell Proliferation IC50, BCR/BaF3 TrkC. An outline of the steps:
as §1

In experiment [4] the target is c-Kit kinase (Homo sapiens, UniProt P10721). As to the kind of experiment: c-Kit kinase biochemical activity assay (AlphaScreen, biotin-(E4Y)10 phosphorylation). The following applies: 100 μM ATP; read-out: Biochemical Inhibition IC50 Kit. An outline of the steps:
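AlphaScreen read-out (streptavidin donor, anti-phosphotyrosine PY20 acceptor beads, EDTA stop) of c-Kit activity. Reaction: 0.75 ng kinase, 100 µM ATP, 30 nM biotin-(E4Y)10, 25 mM HEPES pH 7.5, 2 mM MgCl2, 2 mM MnCl2, 5% DMSO, 1 h room temperature. IC50 derived over an 8-point, two-fold dilution series.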
(In general: In Alpha technology, singlet oxygen from a donor bead excites a nearby acceptor bead.)

Molecules are shown by their SMILES. pIC50: −log10 of the molar value. Bounds are passed on as bounds.

Sequence of c-Kit kinase (P10721 26-976): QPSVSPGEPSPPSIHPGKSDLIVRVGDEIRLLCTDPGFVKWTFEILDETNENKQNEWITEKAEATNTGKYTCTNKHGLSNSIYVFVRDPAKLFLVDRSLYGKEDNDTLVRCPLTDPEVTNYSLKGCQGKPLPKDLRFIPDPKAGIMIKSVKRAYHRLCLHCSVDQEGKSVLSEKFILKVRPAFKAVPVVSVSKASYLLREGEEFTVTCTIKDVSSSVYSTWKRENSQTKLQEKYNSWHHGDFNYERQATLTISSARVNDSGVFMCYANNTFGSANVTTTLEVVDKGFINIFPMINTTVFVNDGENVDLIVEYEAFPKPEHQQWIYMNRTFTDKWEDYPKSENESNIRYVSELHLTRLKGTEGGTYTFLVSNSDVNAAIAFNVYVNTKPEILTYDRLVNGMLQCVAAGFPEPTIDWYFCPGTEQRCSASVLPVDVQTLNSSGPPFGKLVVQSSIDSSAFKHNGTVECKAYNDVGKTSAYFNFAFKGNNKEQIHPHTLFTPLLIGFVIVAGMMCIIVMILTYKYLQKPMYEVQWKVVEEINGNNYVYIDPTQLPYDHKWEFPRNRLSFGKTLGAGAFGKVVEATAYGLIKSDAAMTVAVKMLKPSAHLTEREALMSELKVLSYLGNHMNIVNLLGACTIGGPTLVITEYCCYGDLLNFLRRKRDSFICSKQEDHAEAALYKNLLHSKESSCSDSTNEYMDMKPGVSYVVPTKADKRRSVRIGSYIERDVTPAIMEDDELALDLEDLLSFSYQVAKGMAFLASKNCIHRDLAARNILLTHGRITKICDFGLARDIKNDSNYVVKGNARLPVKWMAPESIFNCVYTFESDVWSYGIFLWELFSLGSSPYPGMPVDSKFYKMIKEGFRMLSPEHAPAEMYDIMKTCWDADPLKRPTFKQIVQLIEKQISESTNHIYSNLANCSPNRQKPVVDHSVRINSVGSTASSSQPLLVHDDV
T1 sequence (Q16620 538-807): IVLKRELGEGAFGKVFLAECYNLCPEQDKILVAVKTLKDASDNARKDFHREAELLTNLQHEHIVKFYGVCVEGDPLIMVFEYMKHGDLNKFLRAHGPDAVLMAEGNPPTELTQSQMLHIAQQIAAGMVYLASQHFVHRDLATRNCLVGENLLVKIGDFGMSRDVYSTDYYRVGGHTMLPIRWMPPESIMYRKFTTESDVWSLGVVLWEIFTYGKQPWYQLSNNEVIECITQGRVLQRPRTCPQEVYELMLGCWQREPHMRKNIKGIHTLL
T3 sequence (Q16288 whole entry, the tested form may be a part): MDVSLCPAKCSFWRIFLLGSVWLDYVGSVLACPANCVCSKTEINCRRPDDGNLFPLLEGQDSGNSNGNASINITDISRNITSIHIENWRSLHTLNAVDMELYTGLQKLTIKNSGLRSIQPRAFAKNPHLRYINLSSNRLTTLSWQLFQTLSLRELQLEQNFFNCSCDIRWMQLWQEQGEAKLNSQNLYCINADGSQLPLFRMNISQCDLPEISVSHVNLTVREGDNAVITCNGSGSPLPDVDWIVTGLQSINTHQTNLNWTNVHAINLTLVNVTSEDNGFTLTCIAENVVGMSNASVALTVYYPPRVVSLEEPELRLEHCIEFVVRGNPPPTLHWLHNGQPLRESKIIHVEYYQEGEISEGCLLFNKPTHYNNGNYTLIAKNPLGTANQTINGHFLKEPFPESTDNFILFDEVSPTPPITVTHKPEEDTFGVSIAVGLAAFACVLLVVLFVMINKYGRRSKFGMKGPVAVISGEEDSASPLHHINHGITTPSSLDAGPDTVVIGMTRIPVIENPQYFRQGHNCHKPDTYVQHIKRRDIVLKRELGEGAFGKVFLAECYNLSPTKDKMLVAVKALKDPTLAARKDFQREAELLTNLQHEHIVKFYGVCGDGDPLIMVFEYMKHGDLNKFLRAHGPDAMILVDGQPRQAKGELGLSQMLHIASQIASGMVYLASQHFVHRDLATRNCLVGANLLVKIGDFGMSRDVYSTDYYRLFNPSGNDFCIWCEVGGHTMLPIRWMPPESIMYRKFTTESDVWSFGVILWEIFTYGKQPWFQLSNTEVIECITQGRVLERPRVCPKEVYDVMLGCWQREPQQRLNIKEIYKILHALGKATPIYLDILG

Turning to `O=C(c1cnc(NC2CCC(F)(F)CC2)c(F)c1)c1c[nH]c2ncnc(NCC(F)(F)F)c12` [Compound P-4052, [6-[(4,4-difluorocyclohexyl)amino]-5-fluoro-3-pyridyl]-[4-(2,2,2-trifluoroethylamino)-7H-pyrrolo[2,3-d]pyrimidin-5-yl]methanone], the pIC50 in experiment [1] is greater than 6.00; in experiment [2], greater than 6.00; in experiment [3], greater than 8.00; in experiment [4], less than 6.00.
In the case of `CNc1ncnc2[nH]cc(C(=O)c3cnc(NC4CCC(F)(F)CC4)c(F)c3)c12` [Compound P-4054, [6-[(4,4-difluorocyclohexyl)amino]-5-fluoro-3-pyridyl]-[4-(methylamino)-7H-pyrrolo[2,3-d]pyrimidin-5-yl]methanone], the pIC50 is greater than 6.00 in experiment [1], greater than 6.00 in experiment [2], greater than 8.00 in experiment [3] and less than 6.00 in experiment [4].
Turning to `Fc1nc(Nc2ccc(C3CC3)nc2)ccc1Cc1c[nH]c2ncnc(C3CC3)c12` [Compound P-4041, (6-Cyclopropyl-pyridin-3-yl)-[5-(4-cyclopropyl-7H-pyrrolo[2,3-d]pyrimidin-5-ylmethyl)-6-fluoro-pyridin-2-yl]-amine], the pIC50 in experiment [1] is greater than 8.00; in experiment [2], greater than 8.00; in experiment [3], greater than 8.00; in experiment [4] it was greater than 7.00.
Turning to `CCNc1ncnc2[nH]cc(C(=O)c3cnc(NC4CCC(F)(F)CC4)c(F)c3)c12` [Compound P-4051, [6-[(4,4-difluorocyclohexyl)amino]-5-fluoro-3-pyridyl]-[4-(ethylamino)-7H-pyrrolo[2,3-d]pyrimidin-5-yl]methanone], the pIC50 in experiment [1] is greater than 8.00; in experiment [2], greater than 6.00; in experiment [3] it was greater than 8.00; in experiment [4] it was greater than 6.00.
As for `Nc1ncnc2[nH]cc(C(=O)c3ccc(NC4CCC(F)(F)CC4)nc3Cl)c12` [Compound P-4046, (4-amino-7H-pyrrolo[2,3-d]pyrimidin-5-yl)-[2-chloro-6-[(4,4-difluorocyclohexyl)amino]-3-pyridyl]methanone], the pIC50 in experiment [1], in experiment [2], in experiment [3] and in experiment [4] was greater than 6.00 throughout.
On to `CCNc1ncnc2[nH]cc(C(=O)c3ccc(NC4CCC(F)(F)CC4)nc3Cl)c12` [Compound P-4050, [2-chloro-6-[(4,4-difluorocyclohexyl)amino]-3-pyridyl]-[4-(ethylamino)-7H-pyrrolo[2,3-d]pyrimidin-5-yl]methanone], for which the pIC50 in experiment [1], in experiment [2], in experiment [3] and in experiment [4] was greater than 6.00 throughout.
Take `Clc1cnc2[nH]cc(Cc3cnc(NC4CCC4)nc3)c2c1` [Compound P-3007, [5-(5-Chloro-1H-pyrrolo[2,3-b]pyridin-3-ylmethyl)-pyrimidin-2-yl]-cyclobutyl-amine]: the pIC50 in experiment [1] was less than 5.00; in experiment [2], less than 5.00; in experiment [3], less than 5.00; in experiment [4] it was less than 6.00.
With `Nc1ncnc2[nH]cc(C(=O)c3ccc(Nc4ccc(C5CC5)nc4)nc3F)c12` [Compound P-4048, (4-amino-7H-pyrrolo[2,3-d]pyrimidin-5-yl)-[6-[(6-cyclopropyl-3-pyridyl)amino]-2-fluoro-3-pyridyl]methanone], the pIC50 in experiment [1] was greater than 8.00; in experiment [2], greater than 6.00; in experiment [3] it was greater than 8.00; in experiment [4] it was greater than 8.00.
With `O=C(c1ccc(Nc2ccc(C3CC3)nc2)nc1F)c1c[nH]c2ncnc(C3CC3)c12` [Compound P-4040, [6-(6-Cyclopropyl-pyridin-3-ylamino)-2-fluoro-pyridin-3-yl]-(4-cyclopropyl-7H-pyrrolo[2,3-d]pyrimidin-5-yl)-methanone], the pIC50 was greater than 8.00 in experiment [1], greater than 8.00 in experiment [2], greater than 8.00 in experiment [3] and greater than 7.00 in experiment [4].
For `O=C(c1cnc(NC2CCC(F)(F)CC2)c(F)c1)c1c[nH]c2ncnc(NC3CC3)c12` [Compound P-4053, [4-(cyclopropylamino)-7H-pyrrolo[2,3-d]pyrimidin-5-yl]-[6-[(4,4-difluorocyclohexyl)amino]-5-fluoro-3-pyridyl]methanone], the pIC50 in experiment [1] is greater than 8.00; in experiment [2], greater than 8.00; in experiment [3] it was greater than 8.00; in experiment [4], greater than 6.00.
For `CC(C)=CNc1ncnc2[nH]cc(C(=O)c3ccc(NC4CCC(F)(F)CC4)nc3Cl)c12` [Compound P-4047, [2-chloro-6-[(4,4-difluorocyclohexyl)amino]-3-pyridyl]-[4-(2-methylprop-1-enylamino)-7H-pyrrolo[2,3-d]pyrimidin-5-yl]methanone], the pIC50 in experiment [1], in experiment [2], in experiment [3] and in experiment [4] was less than 6.00 throughout.
Regarding `CC(C)(O)CNc1ncnc2[nH]cc(C(=O)c3ccc(Nc4ccc(C5CC5)nc4)nc3F)c12` [Compound P-4049, [6-[(6-cyclopropyl-3-pyridyl)amino]-2-fluoro-3-pyridyl]-[4-[(2-hydroxy-2-methyl-propyl)amino]-7H-pyrrolo[2,3-d]pyrimidin-5-yl]methanone], the pIC50 in experiment [1], in experiment [2], in experiment [3] and in experiment [4] was greater than 6.00 throughout.
Consider `Cc1cnc2[nH]cc(Cc3ccc(NC4CCCCC4)nc3F)c2c1` [Compound P-3008, cyclohexyl-[6-fluoro-5-(5-methyl-1H-pyrrolo[2,3-b]pyridin-3-ylmethyl)-pyridin-2-yl]-amine], for which the pIC50 in experiment [4] was greater than 6.00.
